This note sets out measurements from the supplement of paper PMC10307832.

Holding throughout (test): relative viability (nuclei count vs DMSO), 5 days (fraction); higher = more cells survive
Compound in the test “CUDC-101 + Decitabine”: C#Cc1cccc(Nc2ncnc3cc(OC)c(OCCCCCCC(=O)NO)cc23)c1 [CUDC-101] + Nc1ncn([C@H]2C[C@H](O)[C@@H](CO)O2)c(=O)n1 [Decitabine] (partner 2 µM)
The essentials:
(§1)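 Values are medians from duplicate plates. Each reflects relative viability, defined as the nuclei count of treated wells over that of vehicle wells. Lung cancer cell lines in 1536-well plates were pin-tool dosed one day after seeding with one drug alone or with a fixed anchor-drug dose plus five library-drug doses (not always all listed) in √10 steps, then fixed, stained and imaged at 4× after 5 days.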

Compound in the test “NVP-TAE684 + AZD7762”: COc1cc(N2CCC(N3CCN(C)CC3)CC2)ccc1Nc1ncc(Cl)c(Nc2ccccc2S(=O)(=O)C(C)C)n1 [NVP-TAE684] + NC(=O)Nc1cc(-c2cccc(F)c2)sc1C(=O)N[C@H]1CCCNC1 [AZD7762] (partner 0.2 µM)
The essentials:
as §1

Compound in the test “NVP-TAE684 + Trametinib”: COc1cc(N2CCC(N3CCN(C)CC3)CC2)ccc1Nc1ncc(Cl)c(Nc2ccccc2S(=O)(=O)C(C)C)n1 [NVP-TAE684] + CC(=O)Nc1cccc(-n2c(=O)n(C3CC3)c(=O)c3c(Nc4ccc(I)cc4F)n(C)c(=O)c(C)c32)c1 [Trametinib] (partner 0.02 µM)
The essentials:
as §1

Compound in test [1]: C1=CC=C2C(=C1)N=C(S2)C(C#N)C3=NC(=NC=C3)NCCC4=CN=CC=C4 + NC(=O)Nc1cc(-c2cccc(F)c2)sc1C(=O)N[C@H]1CCCNC1 [AZD7762] (partner 0.2 µM)
The essentials:
as §1

Compound in the test “NVP-TAE684 + Vorinostat”: COc1cc(N2CCC(N3CCN(C)CC3)CC2)ccc1Nc1ncc(Cl)c(Nc2ccccc2S(=O)(=O)C(C)C)n1 [NVP-TAE684] + O=C(CCCCCCC(=O)Nc1ccccc1)NO [Vorinostat] (partner 1 µM)
The essentials:
as §1

On to NCI-H1734, for which the relative viability with CUDC-101 + Decitabine (first compound 0.01 µM) came out at 0.514; with CUDC-101 + Decitabine (first compound 0.03162 µM), 0.487; in the test with CUDC-101 + Decitabine (first compound 0.1 µM) it was 0.497; with CUDC-101 + Decitabine (first compound 0.3162 µM), 0.471; in the test with CUDC-101 + Decitabine (first compound 1 µM), 0.389; with NVP-TAE684 + AZD7762 (first compound 0.2 µM) it was 0.481. Moreover, the relative viability worked out at 0.443 with NVP-TAE684 + AZD7762 (first compound 0.6325 µM); 0.432 with NVP-TAE684 + AZD7762 (first compound 2 µM); 0.696 with NVP-TAE684 + Trametinib (first compound 0.2 µM); 0.673 in the test with NVP-TAE684 + Trametinib (first compound 0.6325 µM); 0.517 with NVP-TAE684 + Trametinib (first compound 2 µM); 0.443 in test [1] (first compound 0.005 µM). In addition, the relative viability was 0.658 in test [1] (first compound 0.01581 µM); 0.615 in test [1] (first compound 0.05 µM); 0.566 in test [1] (first compound 0.1581 µM); 0.514 in test [1] (first compound 0.5 µM); 0.846 in the test with NVP-TAE684 + Vorinostat (first compound 0.2 µM); 0.631 with NVP-TAE684 + Vorinostat (first compound 2 µM).
As for NCI-H1755, the relative viability with CUDC-101 + Decitabine (first compound 0.01 µM) came to 0.695; with CUDC-101 + Decitabine (first compound 0.03162 µM) it was 0.748; with CUDC-101 + Decitabine (first compound 0.1 µM) it was 0.83; with CUDC-101 + Decitabine (first compound 0.3162 µM) it was 0.755; with CUDC-101 + Decitabine (first compound 1 µM) it was 0.64; in the test with NVP-TAE684 + AZD7762 (first compound 0.2 µM), 0.434. Also, the relative viability turned out to be 0.427 with NVP-TAE684 + AZD7762 (first compound 0.6325 µM); 0.328 with NVP-TAE684 + AZD7762 (first compound 2 µM); 0.769 with NVP-TAE684 + Trametinib (first compound 0.2 µM); 0.846 in the test with NVP-TAE684 + Trametinib (first compound 0.6325 µM); 0.729 with NVP-TAE684 + Trametinib (first compound 2 µM); 0.458 in test [1] (first compound 0.005 µM). For the same cell line, the relative viability in test [1] (first compound 0.01581 µM) was 0.539; in test [1] (first compound 0.05 µM), 0.506; in test [1] (first compound 0.1581 µM) it was 0.542; in test [1] (first compound 0.5 µM), 0.43; with NVP-TAE684 + Vorinostat (first compound 0.2 µM) it was 0.768; with NVP-TAE684 + Vorinostat (first compound 0.6325 µM), 0.744. Besides, the relative viability with NVP-TAE684 + Vorinostat (first compound 2 µM) came to 0.635.
Regarding NCI-H1793, the relative viability with CUDC-101 + Decitabine (first compound 0.01 µM) is 0.388; with CUDC-101 + Decitabine (first compound 0.03162 µM), 0.493; with CUDC-101 + Decitabine (first compound 0.1 µM), 0.467; in the test with CUDC-101 + Decitabine (first compound 0.3162 µM), 0.431; with CUDC-101 + Decitabine (first compound 1 µM), 0.435; with NVP-TAE684 + AZD7762 (first compound 0.2 µM), 0.479. The relative viability is 0.247 with NVP-TAE684 + AZD7762 (first compound 0.6325 µM); 0.169 with NVP-TAE684 + AZD7762 (first compound 2 µM); 0.468 with NVP-TAE684 + Trametinib (first compound 0.2 µM); 0.303 with NVP-TAE684 + Trametinib (first compound 0.6325 µM); 0.414 with NVP-TAE684 + Trametinib (first compound 2 µM); 0.391 in test [1] (first compound 0.01581 µM). In addition, the relative viability in test [1] (first compound 0.05 µM) is 0.58; in test [1] (first compound 0.1581 µM), 0.513; in test [1] (first compound 0.5 µM), 0.306; with NVP-TAE684 + Vorinostat (first compound 0.2 µM), 1.14; in the test with NVP-TAE684 + Vorinostat (first compound 0.6325 µM), 0.575; with NVP-TAE684 + Vorinostat (first compound 2 µM) it was 0.878.
Regarding NCI-H1915, the relative viability with CUDC-101 + Decitabine (first compound 0.01 µM) is 0.262; in the test with CUDC-101 + Decitabine (first compound 0.03162 µM), 0.267; with CUDC-101 + Decitabine (first compound 0.1 µM), 0.28; with CUDC-101 + Decitabine (first compound 0.3162 µM) it was 0.248; with CUDC-101 + Decitabine (first compound 1 µM) it was 0.23; with NVP-TAE684 + AZD7762 (first compound 0.2 µM), 0.699. Also, the relative viability with NVP-TAE684 + AZD7762 (first compound 0.6325 µM) was found to be 0.742; in the test with NVP-TAE684 + AZD7762 (first compound 2 µM), 0.595; with NVP-TAE684 + Trametinib (first compound 0.2 µM) it was 0.298; with NVP-TAE684 + Trametinib (first compound 0.6325 µM), 0.304; in the test with NVP-TAE684 + Trametinib (first compound 2 µM), 0.507; in test [1] (first compound 0.01581 µM), 0.679. The relative viability in test [1] (first compound 0.05 µM) came to 0.698; in test [1] (first compound 0.1581 µM), 0.693; in test [1] (first compound 0.5 µM) it was 0.699; in the test with NVP-TAE684 + Vorinostat (first compound 0.2 µM), 0.579; in the test with NVP-TAE684 + Vorinostat (first compound 0.6325 µM), 0.547; with NVP-TAE684 + Vorinostat (first compound 2 µM), 0.459.
With NCI-H1944, the relative viability in the test with CUDC-101 + Decitabine (first compound 0.01 µM) was found to be 0.409; in the test with CUDC-101 + Decitabine (first compound 0.03162 µM), 0.434; in the test with CUDC-101 + Decitabine (first compound 0.1 µM), 0.431; with CUDC-101 + Decitabine (first compound 0.3162 µM), 0.428; with CUDC-101 + Decitabine (first compound 1 µM), 0.363; with NVP-TAE684 + AZD7762 (first compound 0.2 µM) it was 0.507. Moreover, the relative viability turned out to be 0.441 with NVP-TAE684 + AZD7762 (first compound 0.6325 µM); 0.348 with NVP-TAE684 + AZD7762 (first compound 2 µM); 0.41 with NVP-TAE684 + Trametinib (first compound 0.2 µM); 0.41 with NVP-TAE684 + Trametinib (first compound 0.6325 µM); 0.364 with NVP-TAE684 + Trametinib (first compound 2 µM); 0.541 in test [1] (first compound 0.005 µM). Also, the relative viability in test [1] (first compound 0.01581 µM) worked out at 0.557; in test [1] (first compound 0.05 µM) it was 0.603; in test [1] (first compound 0.1581 µM), 0.466; in test [1] (first compound 0.5 µM), 0.456; in the test with NVP-TAE684 + Vorinostat (first compound 0.2 µM), 0.637; with NVP-TAE684 + Vorinostat (first compound 0.6325 µM), 0.475. For the same cell line, the relative viability with NVP-TAE684 + Vorinostat (first compound 2 µM) was 0.486.
For the cell line NCI-H1975, the relative viability in the test with CUDC-101 + Decitabine (first compound 0.01 µM) was determined as 0.398; with CUDC-101 + Decitabine (first compound 0.03162 µM), 0.451; with CUDC-101 + Decitabine (first compound 0.1 µM), 0.389; with CUDC-101 + Decitabine (first compound 0.3162 µM), 0.391; with CUDC-101 + Decitabine (first compound 1 µM), 0.374; with NVP-TAE684 + AZD7762 (first compound 0.2 µM), 0.694. Moreover, the relative viability with NVP-TAE684 + AZD7762 (first compound 0.6325 µM) was found to be 0.649; with NVP-TAE684 + AZD7762 (first compound 2 µM), 0.381; with NVP-TAE684 + Trametinib (first compound 0.2 µM) it was 0.325; with NVP-TAE684 + Trametinib (first compound 0.6325 µM), 0.335; with NVP-TAE684 + Trametinib (first compound 2 µM), 0.215; in test [1] (first compound 0.005 µM), 0.639. Moreover, the relative viability in test [1] (first compound 0.01581 µM) came out at 0.635; in test [1] (first compound 0.05 µM) it was 0.711; in test [1] (first compound 0.1581 µM), 0.743; in test [1] (first compound 0.5 µM), 0.506; with NVP-TAE684 + Vorinostat (first compound 0.2 µM), 0.694; with NVP-TAE684 + Vorinostat (first compound 0.6325 µM), 0.666. The relative viability with NVP-TAE684 + Vorinostat (first compound 2 µM) turned out to be 0.263.
Turning to NCI-H1993, the relative viability with CUDC-101 + Decitabine (first compound 0.01 µM) amounted to 0.62; with CUDC-101 + Decitabine (first compound 0.03162 µM) it was 0.548; with CUDC-101 + Decitabine (first compound 0.1 µM), 0.602; with CUDC-101 + Decitabine (first compound 0.3162 µM), 0.586; with CUDC-101 + Decitabine (first compound 1 µM), 0.488; with NVP-TAE684 + AZD7762 (first compound 0.2 µM), 0.772. In addition, the relative viability in the test with NVP-TAE684 + AZD7762 (first compound 0.6325 µM) stood at 0.826; with NVP-TAE684 + AZD7762 (first compound 2 µM), 0.584; with NVP-TAE684 + Trametinib (first compound 0.2 µM) it was 0.359; in the test with NVP-TAE684 + Trametinib (first compound 0.6325 µM), 0.461; with NVP-TAE684 + Trametinib (first compound 2 µM) it was 0.521; in test [1] (first compound 0.005 µM) it was 0.664. The relative viability turned out to be 0.749 in test [1] (first compound 0.01581 µM); 1.03 in test [1] (first compound 0.05 µM); 1.01 in test [1] (first compound 0.1581 µM); 0.7 in test [1] (first compound 0.5 µM); 0.713 with NVP-TAE684 + Vorinostat (first compound 0.2 µM); 0.695 with NVP-TAE684 + Vorinostat (first compound 0.6325 µM). Also, the relative viability with NVP-TAE684 + Vorinostat (first compound 2 µM) was determined as 0.48.
In the case of NCI-H2085, the relative viability in the test with CUDC-101 + Decitabine (first compound 0.01 µM) was found to be 0.642; in the test with CUDC-101 + Decitabine (first compound 0.03162 µM), 0.552; with CUDC-101 + Decitabine (first compound 0.1 µM), 0.634; with CUDC-101 + Decitabine (first compound 0.3162 µM), 0.568; with CUDC-101 + Decitabine (first compound 1 µM), 0.551; in the test with NVP-TAE684 + AZD7762 (first compound 0.2 µM), 0.991. For the same cell line, the relative viability worked out at 0.953 in the test with NVP-TAE684 + AZD7762 (first compound 0.6325 µM); 0.797 with NVP-TAE684 + AZD7762 (first compound 2 µM); 0.579 with NVP-TAE684 + Trametinib (first compound 0.2 µM); 0.503 with NVP-TAE684 + Trametinib (first compound 0.6325 µM); 0.4 in the test with NVP-TAE684 + Trametinib (first compound 2 µM); 0.833 in test [1] (first compound 0.005 µM). The relative viability in test [1] (first compound 0.01581 µM) amounted to 0.956; in test [1] (first compound 0.05 µM), 1.02; in test [1] (first compound 0.1581 µM), 1.07; in test [1] (first compound 0.5 µM), 0.905; with NVP-TAE684 + Vorinostat (first compound 0.2 µM) it was 0.817; with NVP-TAE684 + Vorinostat (first compound 0.6325 µM), 0.755. The relative viability with NVP-TAE684 + Vorinostat (first compound 2 µM) worked out at 0.725.
